# Measured values taken from patent publication US20140315738A1, “MARINE MEDAKA GENES RESPONDING TO THE EXPOSURE OF ENDOCRINE-DISRUPTING CHEMICALS, AND METHOD FOR DIAGNOSING AN AQUATIC ECO-SYSTEM CONTAMINATION USING SAME” (priority 2011, published 2014).
# System: Javanese medaka (Oryzias javanicus) livers
# Assay type: in vivo
# Details: 76 μg/L, 48 hr, liver
# Method: Javanese medaka was cultured in natural seawater filtered through three types of filters (10, 10 and 1 μm). Water temperature was fixed at 25° C. with underwater heater, and Artemia salina nauplii were fed once a day.
# To 3 L beaker with 2 L filtered seawater therein, 10 male Javanese medaka bred in culture water tank were transported each time, and acclimated for 24 hr. […] Additionally, five Javanese medaka of Example <1-1> were exposed to BPA (76 μg/L) for 48 hr. […] The Javanese medaka was transported to ice water, one at a time, which momentarily stunned it, followed by beheading and evisceration and liver removal.
# To the Javanese medaka livers of BPA exposed group (48 hr) produced from Example <1-2>, and of control group without exposure, 1 ml of TRI Reagent solution (Molecular Research Center Inc, Cincinnati, Ohio, USA) was added, homogenized with glass homogenizer, and left at room temperature for 5 min. Next, chloroform (200 μl) was added and mixed, left at room temperature for 10 min. After centrifugation for 15 min (12,000×g, 4° C.), supernatant was obtained, to which isopropanol (500 μl) was added and left at room temperature for 5 min. After centrifugation for about 20 min (12,000×g, 4° C.), solution was removed, thus leaving precipitate. To the precipitate, 70% ethanol solution (50 μl) was added and after centrifugation for 5 min, ethanol solution was removed, and the precipitate RNA was dried. After drying, the product was dissolved in appropriate amount of DEPC (diethylpyrocarbonate)-treated water.
# The entire RNA of the distilled exposed group and non-exposed group were labeled with Cy3 and Cy5 as follows, using Agilent's Low RNA Input Linear Amplification Kit Plus (Agilent Technologies, USA). To be specific, RNA (1 μg) was mixed with dT-promoter primer and MMLV-Reverse transcriptase. After reverse transcription at 40° C. for 2 hr, T7 polymerase was added, and linear amplification was done at 40° C. for 2 hr. After the amplification process explained above, the samples of experimental and control groups were labeled with Cy3-CTP and Cy5-CTP, respectively.
# Fluorescent-labeled cDNA sample was purified with Qiagen PCR purification kit, and eluted with distilled water. The purified, fluorescent-labeled cDNA sample was added to hybridization buffer (3×SSC, 0.3% SDS, 50% formamide, 20 μg Cot-1 DNA, 20 μg yeast tRNA), and concentrated with microcon YM-30. After hybridization, the hybridized compound was heated at 95° C. for 3 min for denaturization, and the temperature of the heated, hybridized compound was decreased by centrifugation for 30 sec at 12,000 g. The produced Javanese medaka cDNA microarray was covered with coverslip, and the denaturized, hybridized compound was pipetted. The microarray was put into GT-Hyb chamber for reaction to occur at 65° C. for 16 hr. After hybridization, the microarray was taken out of the chamber, underwent cleansing process as explained below, rotated and dried, and stored in a dark room until scanning. The Javanese medaka microarray was then scanned with Axon GenePix 4000B scanner (Axon Instrument, USA). On the GenePix Pro 6.0 program, dots from the scanned image were gridded using gridding file, and quantified to produce GPR file including analysis on cy5/Cy3 magnitudes and ratios.
# Based on the GPR file obtained with the GenePix Pro Program, the following analysis was made using analysis program, i.e., GeneSpring 7.3.1 (Agilent Technologies, USA). Normalization: by LOWESS (locally weighted regression scatterplot smoothing). Reliable gene): significant genes were obtained by flagging out dots whose sums of medial values were less than the background, or dots whose standard deviations of pixel values are not significant. Significant genes: dots whose normalized ratio is at […] higher interval, were screened. […]
# [1] = Down-regulation, + = increased expression level
# [2] = Up-regulation, − = decreased expression level
structure (smiles),measurement,setting,value
"CC(C)(c1ccc(O)cc1)c1ccc(O)cc1 [BPA, Bisphenol A]","Fold difference, 40S ribosomal protein S19 (No. 115)",[1],+2.00 fold
same,"Fold difference, ATP citrate lyase (ACLY), transcript variant 2 (No. 154)",[1],+2.84 fold
same,"Fold difference, ATP-binding cassette transporter sub-family G member 2b (No. 146)",[1],+2.59 fold
same,"Fold difference, GTP cyclohydrolase 1 precursor (No. 148)",[1],+2.60 fold
same,"Fold difference, Iron-responsive element-binding protein 1 (No. 141)",[1],+2.25 fold
same,"Fold difference, Isocitrate dehydrogenase (No. 153)",[1],+2.72 fold
same,"Fold difference, NADH dehydrogenase subunit 4 (No. 126)",[1],+2.08 fold
same,"Fold difference, Nedd4 family interacting protein 2 (No. 132)",[1],+2.13 fold
same,"Fold difference, Restin (Cytoplasmic linker protein-170 alpha-2) (No. 133)",[1],+2.14 fold
same,"Fold difference, Ribosomal protein S14, transcript variant 4 (No. 158)",[1],+3.11 fold
same,"Fold difference, TBT-binding protein (No. 120)",[1],+2.02 fold
same,"Fold difference, Thyroid hormone receptor-associated protein complex 150 kDa component (No. 149)",[1],+2.62 fold
same,"Fold difference, Transforming growth factor-beta-induced protein ig-h3 (No. 114)",[1],+2.00 fold
same,"Fold difference, Translation initiation factor eIF-2B subunit epsilon (No. 157)",[1],+3.00 fold
same,"Fold difference, Transmembrane protein 85 (No. 159)",[1],+5.22 fold
same,"Fold difference, adult alpha-type globin (No. 147)",[1],+2.59 fold
same,"Fold difference, alcohol dehydrogenase Class VI (ADH8) (No. 116)",[1],+2.01 fold
same,"Fold difference, alpha-2-macroglobulin (No. 119)",[1],+2.01 fold
same,"Fold difference, alpha-2-macroglobulin-2 (No. 123)",[1],+2.03 fold
same,"Fold difference, apolipoprotein A-IV4 (No. 156)",[1],+2.94 fold
same,"Fold difference, arginyl-tRNA synthetase (No. 145)",[1],+2.52 fold
same,"Fold difference, calreticulin (No. 142)",[1],+2.25 fold
same,"Fold difference, carboxyl ester lipase, tandem duplicate 2 (No. 118)",[1],+2.01 fold
same,"Fold difference, catalase (No. 135)",[1],+2.16 fold
same,"Fold difference, choriogenin L (No. 130)",[1],+2.12 fold
same,"Fold difference, chymotrypsinogen 2-like protein (No. 140)",[1],+2.22 fold
same,"Fold difference, complement component C9 (No. 122)",[1],+2.03 fold
same,"Fold difference, complement factor B/C2-B (No. 131)",[1],+2.12 fold
same,"Fold difference, complement regulatory plasma protein (No. 128)",[1],+2.11 fold
same,"Fold difference, cyclin B2 (No. 152)",[1],+2.66 fold
same,"Fold difference, cyclin Y-like 1 (No. 127)",[1],+2.09 fold
same,"Fold difference, decorin mRNA (No. 155)",[1],+2.87 fold
same,"Fold difference, delta 6-desaturase (No. 143)",[1],+2.39 fold
same,"Fold difference, glutathione S transferase Rho-class (No. 162)",[1],+6.90 fold
same,"Fold difference, heat shock protein 84b (No. 160)",[1],+5.53 fold
same,"Fold difference, hepcidin-like precursor (No. 125)",[1],+2.07 fold
same,"Fold difference, hypoxanthine phosphoribosyltransferase 1 (No. 138)",[1],+2.17 fold
same,"Fold difference, kelch domain containing 10 (No. 144)",[1],+2.42 fold
same,"Fold difference, kelch-like ECH-associated protein 1b (No. 124)",[1],+2.06 fold
same,"Fold difference, keratin 15 (No. 121)",[1],+2.02 fold
same,"Fold difference, malate dehydrogenase (No. 117)",[1],+2.01 fold
same,"Fold difference, ornithine decarboxylase antizyme large isoform ORF1 (No. 134)",[1],+2.15 fold
same,"Fold difference, protein kinase C and casein kinase substrate in neurons 2 (No. 129)",[1],+2.12 fold
same,"Fold difference, protein phosphatase 2A regulatory subunit B′ delta isoform (No. 151)",[1],+2.63 fold
same,"Fold difference, ring finger protein 141 (No. 136)",[1],+2.16 fold
same,"Fold difference, sex hormone-binding globulin (No. 150)",[1],+2.62 fold
same,"Fold difference, warm-temperature-acclimation-related-65 kDa-protein (C79) (No. 161)",[1],+5.88 fold
same,"Fold difference, 5,10-methylenetetrahydrofolate reductase (NADPH)-like mRNA (No. 106)",[2],−2.06 fold
same,"Fold difference, 40S ribosomal protein S18 (No. 89)",[2],−2.43 fold
same,"Fold difference, 60S acidic ribosomal protein P1 (No. 100)",[2],−2.13 fold
same,"Fold difference, ATPase, H+ transporting, lysosomal, V1 subunit E isoform 1 (No. 109)",[2],−2.04 fold
same,"Fold difference, DEAD-box RNA-dependent helicase p68 mRNA (No. 113)",[2],−2.01 fold
same,"Fold difference, Glycerol-3-phosphate dehydrogenase (No. 80)",[2],−3.03 fold
same,"Fold difference, HSPC038 protein (No. 79)",[2],−3.05 fold
same,"Fold difference, MHC Class I Region (No. 74)",[2],−3.70 fold
same,"Fold difference, Putative transmembrane 4 superfamily member protein (No. 111)",[2],−2.02 fold
same,"Fold difference, TRAF-binding protein (No. 78)",[2],−3.17 fold
same,"Fold difference, Transcription initiation factor IIA gamma chain (No. 108)",[2],−2.06 fold
same,"Fold difference, Uridine phosphorylase 1 (No. 99)",[2],−2.16 fold
same,"Fold difference, bromodomain containing 2 (RING3) gene (No. 92)",[2],−2.35 fold
same,"Fold difference, c-type lysozyme mRNA (No. 98)",[2],−2.18 fold
same,"Fold difference, carnitine O-acetyltransferase precursor (No. 83)",[2],−2.78 fold
same,"Fold difference, cathepsin F (No. 105)",[2],−2.08 fold
same,"Fold difference, choriogenin Hminor (No. 102)",[2],−2.09 fold
same,"Fold difference, cyclin G2 (No. 95)",[2],−2.27 fold
same,"Fold difference, cysteine dioxygenase (No. 94)",[2],−2.32 fold
same,"Fold difference, estrogen receptor beta 2 (No. 91)",[2],−2.37 fold
same,"Fold difference, eukaryotic peptide chain release factor GTP-binding subunit (No. 88)",[2],−2.45 fold
same,"Fold difference, glucose-regulated protein 94 (No. 104)",[2],−2.09 fold
same,"Fold difference, glutathione S-transferase (No. 93)",[2],−2.33 fold
same,"Fold difference, heart-type fatty acid-binding protein (No. 101)",[2],−2.12 fold
same,"Fold difference, leukocyte elastase inhibitor (No. 110)",[2],−2.04 fold
same,"Fold difference, mitogen-activated protein kinase 1 (No. 107)",[2],−2.06 fold
same,"Fold difference, mitogen-activated protein kinase (p38) (No. 112)",[2],−2.02 fold
same,"Fold difference, muscleblind mRNA (No. 85)",[2],−2.53 fold
same,"Fold difference, phosphoenolpyruvate carboxykinase (No. 86)",[2],−2.51 fold
same,"Fold difference, proline rich 6 (No. 71)",[2],−5.99 fold
same,"Fold difference, proteasome subunit, beta type 8 (No. 81)",[2],−2.96 fold
same,"Fold difference, protein kinase C and casein kinase substrate in neurons 1 (No. 96)",[2],−2.22 fold
same,"Fold difference, protein phosphatase 2 regulatory subunit B beta (No. 87)",[2],−2.50 fold
same,"Fold difference, protein tyrosine phosphatase-like, member b (No. 77)",[2],−3.23 fold
same,"Fold difference, retinoid X receptor beta (RXRB) gene (No. 76)",[2],−3.42 fold
same,"Fold difference, ribosomal protein L13 (No. 103)",[2],−2.09 fold
same,"Fold difference, septin 7b (sept7b), transcript variant 1 (No. 97)",[2],−2.20 fold
same,"Fold difference, telomerase reverse transcriptase gene (No. 72)",[2],−4.31 fold
same,"Fold difference, trypsinogen (No. 82)",[2],−2.88 fold
same,"Fold difference, trypsinogen (No. 90)",[2],−2.42 fold
same,"Fold difference, tubulin, beta 5 (No. 84)",[2],−2.56 fold
same,"Fold difference, uridine phosphorylase 2 (No. 73)",[2],−3.77 fold
same,"Fold difference, vitellogenin II (No. 75)",[2],−3.69 fold
